Results: BindingDB's records for patent US11814367 (Maze Therapeutics, 2023)

Columns and labels:
[1] = biological target: T1, Glycogen [starch] synthase, muscle (Homo sapiens, UniProt P13807); test: Kinetic Biochemical Assay
T1 sequence (P13807 whole entry): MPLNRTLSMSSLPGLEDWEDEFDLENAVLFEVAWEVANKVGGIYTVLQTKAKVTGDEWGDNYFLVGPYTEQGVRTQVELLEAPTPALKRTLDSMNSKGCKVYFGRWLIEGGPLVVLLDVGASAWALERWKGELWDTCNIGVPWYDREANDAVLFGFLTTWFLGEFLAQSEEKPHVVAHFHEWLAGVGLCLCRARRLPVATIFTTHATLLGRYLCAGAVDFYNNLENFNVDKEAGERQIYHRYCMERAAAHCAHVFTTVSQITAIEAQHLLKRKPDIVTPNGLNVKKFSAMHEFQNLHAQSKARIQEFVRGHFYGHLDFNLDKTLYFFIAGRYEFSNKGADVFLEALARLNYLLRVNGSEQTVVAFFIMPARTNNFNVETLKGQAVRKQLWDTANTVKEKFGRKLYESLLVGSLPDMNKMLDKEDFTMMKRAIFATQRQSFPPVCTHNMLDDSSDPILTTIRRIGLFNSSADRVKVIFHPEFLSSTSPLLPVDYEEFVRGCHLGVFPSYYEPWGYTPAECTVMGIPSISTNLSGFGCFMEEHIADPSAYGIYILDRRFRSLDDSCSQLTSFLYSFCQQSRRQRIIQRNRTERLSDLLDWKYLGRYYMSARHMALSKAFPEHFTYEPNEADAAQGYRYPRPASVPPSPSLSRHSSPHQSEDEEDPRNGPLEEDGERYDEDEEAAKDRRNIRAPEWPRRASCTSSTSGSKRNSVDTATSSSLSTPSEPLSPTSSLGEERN
Experimental: The Assay Buffer contained 50 mM Tris pH 7.5, 2 mM MgCl2, and 100 mM KCl. Fresh stocks of BSA at a final concentration of 0.02% and TCEP at 1 mM were added before splitting buffer into hGYS1 buffer and substrate buffer. To the hGYS1 buffer, rabbit liver glycogen was added at a final concentration of 0.2% glycogen. Glucose-6-Phosphate was added at 1 mM, recombinant hGYS1/GN1 protein was added at 50 nM to the substrate buffer, phosphoenolpyruvate (PEP) was added at 2 mM, UDP-Glucose was added at 0.8 mM, NADH) was added at 0.6 mM, and Pyruvate Kinase/Lactate Dehydrogenase was added at 20 units/mL. The reaction was initiated by mixing hGYS1 buffer and substrate buffer at a 1:1 ratio. Both buffers were plated using a liquid dispensing device with hGYS1 buffer plated first followed by the substrate buffer. Plates were spun briefly to eliminate air bubbles and are immediately read in continuous mode at an absorbance of 340 nm, for 10 time points in one-minute increments, for a total of 10 minutes. The slope from these 10 time points was normalized to the positive and negative control wells.

[2] = biological target: T2, Glycogen [starch] synthase, liver (Homo sapiens, UniProt P54840); test: The GYS2 coupled enzyme assay
T2 sequence (P54840 whole entry): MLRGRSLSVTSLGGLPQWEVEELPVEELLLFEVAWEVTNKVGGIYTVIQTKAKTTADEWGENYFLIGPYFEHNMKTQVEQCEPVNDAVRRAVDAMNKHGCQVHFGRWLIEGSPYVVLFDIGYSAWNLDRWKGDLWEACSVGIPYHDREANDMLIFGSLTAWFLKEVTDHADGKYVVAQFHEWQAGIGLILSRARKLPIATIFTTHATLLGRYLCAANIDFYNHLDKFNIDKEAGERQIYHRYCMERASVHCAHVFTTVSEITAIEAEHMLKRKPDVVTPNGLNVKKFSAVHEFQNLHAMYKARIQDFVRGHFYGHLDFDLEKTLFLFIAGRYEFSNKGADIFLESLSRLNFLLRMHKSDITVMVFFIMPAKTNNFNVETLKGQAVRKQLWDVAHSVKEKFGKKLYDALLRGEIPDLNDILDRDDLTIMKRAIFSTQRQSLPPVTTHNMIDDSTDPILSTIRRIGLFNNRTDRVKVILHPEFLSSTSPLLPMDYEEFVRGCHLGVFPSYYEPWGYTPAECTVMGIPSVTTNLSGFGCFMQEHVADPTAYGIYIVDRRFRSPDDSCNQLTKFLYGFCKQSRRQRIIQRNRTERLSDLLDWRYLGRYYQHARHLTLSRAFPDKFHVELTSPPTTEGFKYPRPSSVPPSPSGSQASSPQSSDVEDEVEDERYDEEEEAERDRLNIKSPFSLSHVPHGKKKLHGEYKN
Experimental: Compounds that inhibit the hGYS2 enzyme and, subsequently, the downstream conversion of NADH to NAD+, were tested using assay ready plates (black, clear bottom 384 well plates) in a final DMSO reaction volume of 2.5% DMSO. The Assay Buffer contained 50 mM Tris pH 7.5, 2 mM MgCl2, and 100 mM KCl. Fresh stocks of BSA at a final concentration of 0.02% and TCEP 1 mM were added before splitting buffer into hGYS2 buffer and substrate buffer. To the hGYS2 buffer, rabbit liver glycogen was added at a final concentration of 0.2% glycogen. Glucose-6-Phosphate was added at 2 mM, recombinant hGYS2/GN1 protein was added at 200 nM to the substrate buffer, phosphoenolpyruvate (PEP) was added at 2 mM, UDP-Glucose was added at 2 mM, NADH was added at 0.6 mM, and Pyruvate Kinase/Lactate Dehydrogenase was added at 20 units/mL. The reaction was initiated by mixing hGYS2 buffer and substrate buffer at a 1:1 ratio. Both buffers were plated using a liquid dispensing device with hGYS2 buffer plated first followed by the substrate buffer. Plates were spun briefly to eliminate air bubbles and are immediately read in continuous mode at an absorbance of 340 nm, for 10 time points in one-minute increments, for a total of 10 minutes. The slope from these 10 time points was normalized to the positive and negative control wells. The duplicate % inhibition values are then averaged and fit to a Hill equation for dose response according to the Levenberg-Marquardt algorithm with the Hill equation maximum set to 100 and the minimum set to 0.The results are shown in Table 4 below

IC50 [1]	IC50 [2]	Compound
453 nM		CC(=O)N1C[C@H](F)C[C@H]1C(=O)NC(c1ccc2cn[nH]c2c1)c1ccc(C2CC2)c(F)n1 (single isomer, unassigned) [US11814367, Compound 637]
309 nM	> 100000 nM	CC(=O)N1C[C@H](F)C[C@H]1C(=O)NC(c1ccccc1)c1ccc(C2CCC2)c(F)c1 (single isomer, unassigned) [US11814367, Compound 660]
67 nM	> 100000 nM	NC(=O)NCC(=O)N1C[C@H](F)C[C@H]1C(=O)N[C@@H](c1ccccc1)c1ccc(C2CC2)c(F)n1 [US11814367, Compound 302]
24 nM		O=C(N[C@@H](c1ccccc1)c1ccc(C2CC2)c(F)n1)[C@@H]1C[C@@H](F)CN1C(=O)CNC(=O)N1CCC1 [US11814367, Compound 305]
1260 nM		CC(C)c1ccc([C@@H](NC(=O)[C@@H]2C[C@@H](F)CN2C(=O)c2ccc3c(cnn3C)c2)c2ccccc2)cc1 [US11814367, Compound 702]
2160 nM		O=C(N[C@H](c1ccccc1)c1ccc(C2CC2)c(F)n1)[C@@H]1C[C@@H](F)CN1C(=O)Cn1cnc2ccccc21 [US11814367, Compound 716]
7 nM	> 100000 nM	CC(C)c1ccc([C@@H](NC(=O)[C@@H]2C[C@@H](F)CN2C(=O)Cn2cc(N3CCC3)nn2)c2ccccc2)nc1F [US11814367, Compound 787]
9 nM		COc1nc(CC(=O)N2C[C@H](F)C[C@H]2C(=O)N[C@@H](c2ccccc2)c2ccc(C(C)C)c(F)n2)nn1C [US11814367, Compound 800]
24 nM		CC(C)c1ccc([C@@H](NC(=O)[C@@H]2C[C@@H](F)CN2C(=O)Cc2nc(C(F)(F)F)co2)c2ccccc2)nc1F [US11814367, Compound 801]

The remaining lines, values behind:

Compound	IC50 [1]	IC50 [2]
CC(=O)N1C[C@H](F)C[C@H]1C(=O)NC(c1ccc2cn[nH]c2c1)c1ccc(C(C)C)c(F)n1 (single isomer, unassigned) [US11814367, Compound 634]	43 nM	
CC(=O)N1C[C@H](F)C[C@H]1C(=O)NC(c1ccc2cnn(C)c2c1)c1ccc(C(C)C)c(F)n1 (single isomer, unassigned) [US11814367, Compound 635]	82 nM	
CC(=O)N1C[C@H](F)C[C@H]1C(=O)NC(c1ccc2cn(C)nc2c1)c1ccc(C(C)C)c(F)n1 (single isomer, unassigned) [US11814367, Compound 636]	71 nM	
CC(=O)N1C[C@H](F)C[C@H]1C(=O)NC(c1ccc(C(C)C)cc1)c1ccccc1N (single isomer, unassigned) [US11814367, Compound 642]	1330 nM	> 100000 nM
COc1cccc(C(NC(=O)[C@@H]2C[C@@H](F)CN2C(C)=O)c2ccc(C(C)C)c(F)n2)c1 (single isomer, unassigned) [US11814367, Compound 654]	252 nM	
CC(=O)N1C[C@H](F)C[C@H]1C(=O)NC(c1cccc(-c2cc(C)nn2C)c1)c1ccc(C(C)C)c(F)n1 (single isomer, unassigned) [US11814367, Compound 697]	1780 nM	
CC(=O)N1Cc2nccnc2CC1C(=O)N1C[C@H](F)C[C@H]1C(=O)N[C@@H](c1ccccc1)c1ccc(C(C)C)cc1 (some centres not stated) [US11814367, Compound 167]	116 nM	> 100000 nM
CC(C)c1ccc([C@@H](NC(=O)[C@@H]2C[C@@H](F)CN2C(=O)CC2COC2)c2ccccc2)cc1 [US11814367, Compound 218]	293 nM	> 100000 nM
CC(C)c1ccc([C@@H](NC(=O)[C@@H]2C[C@@H](F)CN2C(=O)COC(=O)N(C)C)c2ccccc2)nc1 [US11814367, Compound 251]	53 nM	> 100000 nM
CC(C)c1ccc([C@@H](NC(=O)[C@@H]2C[C@@H](F)CN2C(=O)CNC(=O)N(C)C)c2ccccc2)cc1F [US11814367, Compound 361]	10 nM	> 100000 nM
